Laboratory results taken from PubChem BioAssay (NCI).
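These data come from cells grown in 96-well plates and exposed to compound for 48 hours at five concentrations. Abbreviation: GI50, concentration required for 50% inhibition of growth. At the TGI there is no net growth.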

Tests used:
Test in all cases: NCI-60 cell line screen, 48 h
[1] = system: UACC-257 melanoma
[2] = system: NCI-H23 lung
[3] = system: MDA-MB-231 breast
[4] = system: U251 CNS
[5] = system: OVCAR-8 ovarian
[6] = system: HCT-15 colon
[7] = system: SF-268 CNS
[8] = system: 786-0 renal
[9] = system: KM12 colon
[10] = system: M14 melanoma
[11] = system: NCI-H522 lung
[12] = system: PC-3 prostate
[13] = system: NCI-H460 lung
[14] = system: OVCAR-3 ovarian
[15] = system: SR leukemia
[16] = system: EKVX NSCLC
[17] = system: A498 renal
[18] = system: UACC-62 melanoma
[19] = system: HT29 colon
[20] = system: TK-10 renal
[21] = system: ACHN renal
[22] = system: SK-MEL-5 melanoma
[23] = system: RXF 393 renal
[24] = system: COLO 205 colon
[25] = system: OVCAR-4 ovarian
[26] = system: A549 NSCLC
[27] = system: SNB-75 CNS
[28] = system: UO-31 renal
[29] = system: SW-620 colon

With O=C(Oc1ccc[nH]c1=O)c1cc([N+](=O)[O-])cc([N+](=O)[O-])c1 the GI50 [1] was > 100 µM, the TGI [1] was > 100 µM and the GI50 [2] was > 100 µM. For the same molecule, the TGI [2] was > 100 µM, the GI50 [3] was > 100 µM and the TGI [3] was > 100 µM. For the same molecule, the GI50 [4] was > 100 µM, the TGI [4] was > 100 µM and the GI50 [5] was > 100 µM. The TGI [5] was > 100 µM, the GI50 [6] was 81 µM and the TGI [6] was > 100 µM. For the same molecule, the GI50 [7] was > 100 µM, the TGI [7] was > 100 µM and the GI50 [8] was > 100 µM. For the same molecule, the TGI [8] was > 100 µM, the GI50 [9] was 36.3 µM and the TGI [9] was > 100 µM. The GI50 [10] was > 100 µM, the TGI [10] was > 100 µM and the GI50 [11] was > 100 µM. The TGI [11] was > 100 µM, the GI50 [12] was > 100 µM and the TGI [12] was > 100 µM. For the same molecule, the GI50 [13] was 34 µM, the TGI [13] was > 100 µM and the GI50 [14] was > 100 µM. For the same molecule, the TGI [14] was > 100 µM, the GI50 [15] was 74.8 µM and the TGI [15] was > 100 µM. The GI50 [16] was > 100 µM, the TGI [16] was > 100 µM and the GI50 [17] was > 100 µM. For the same molecule, the TGI [17] was > 100 µM, the GI50 [18] was 20.9 µM and the TGI [18] was > 100 µM. The GI50 [19] was > 100 µM, the TGI [19] was > 100 µM and the GI50 [20] was > 100 µM. For the same molecule, the TGI [20] was > 100 µM, the GI50 [21] was 93.3 µM and the TGI [21] was > 100 µM. The GI50 [22] was 34.3 µM, the TGI [22] was > 100 µM and the GI50 [23] was > 100 µM. For the same molecule, the TGI [23] was > 100 µM, the GI50 [24] was > 100 µM and the TGI [24] was > 100 µM. The GI50 [25] was > 100 µM, the TGI [25] was > 100 µM and the GI50 [26] was > 100 µM. The TGI [26] was > 100 µM, the GI50 [27] was > 100 µM and the TGI [27] was > 100 µM. The GI50 [28] was 23.6 µM, the TGI [28] was > 100 µM and the GI50 [29] was 99 µM. The TGI [29] was > 100 µM.
